Test in all cases: In vitro antibacterial activity, two-fold agar-plate dilution method
Common to all, as to format: cell-based

For assay [1], the system named is Pseudomonus aeruginosa NCTC-10490. The settings on record: HI-agar, 37° C., 20 hours, 100-fold dilution of overnight culture, read-out: minimal inhibitory concentration (MIC). As for the experimental part: (§1) In vitro antibacterial activity was determined by the two-fold agar-plate dilution method as described below. One loopful of the 100-fold dilution of an overnight culture of each test strain in Trypticasesoy broth was streaked on heart infusion agar (HI-agar) containing graded concentrations of the test compound and incubated at 37° C. for 20 hours. The minimal inhibitory concentration (MIC) was expressed in μg/ml.

The test system of the next assay is Serratia marcescens 35. The following applies: HI-agar, 37° C., 20 hours, 100-fold dilution of overnight culture, read-out: minimal inhibitory concentration (MIC). As to the method: as §1
The subject of assay [2] is Staphylococcus aureus 209P JC-1. The following applies: HI-agar, 37° C., 20 hours, 100-fold dilution of overnight culture, read-out: minimal inhibitory concentration (MIC). As for the experimental part:
as §1

Assay [3] relates to Escherichia coli. NIHJ JC-2. The following applies: NIHJJC2, HI-agar, 37° C., 20 hours, 100-fold dilution of overnight culture, read-out: minimal inhibitory concentration (MIC). As to the method: as §1
In assay [4] the test system is Proteus vulgaris IAM-1025. The following applies: IAM1025, HI-agar, 37° C., 20 hours, 100-fold dilution of overnight culture, read-out: minimal inhibitory concentration (MIC). As for the experimental part:
as §1

The next assay concerns Klebsiella pneumoniae 20. The settings on record: HI-agar, 37° C., 20 hours, 100-fold dilution of overnight culture, read-out: minimal inhibitory concentration (MIC). As for the experimental part: as §1
The test system of another assay is Proteus mirabilis 18. The settings on record: HI-agar, 37° C., 20 hours, 100-fold dilution of overnight culture, read-out: minimal inhibitory concentration (MIC). As to the method: as §1

The structures appear in SMILES notation. In brackets after ≈: the same amount, converted by molar mass.

Take `CO/N=C(\C(=O)NC1C(=O)N2C(C(=O)O)=CCSC12)c1csc(N)n1` (stereo not drawn) [7-[2-(2-aminothiazol-4-yl)-2-methoxyiminoacetamido]-3-cephem-4-carboxylic acid (syn isomer)]: the MIC in assay [1] was 0.39 µg/mL (≈ 1.02 µM); in the assay on Serratia marcescens 35, 1.56 µg/mL (≈ 4.07 µM); in assay [2], 6.25 µg/mL (≈ 16.3 µM); in assay [3], ≤ 0.025 µg/mL; in assay [4], ≤ 0.025 µg/mL; with Klebsiella pneumoniae 20, ≤ 0.025 µg/mL. Besides, in the assay on Proteus mirabilis 18, the MIC is ≤ 0.025 µg/mL.

The values above are taken from US4368325A, “Processes for preparing 3-cephem compounds” (Fujisawa Pharmaceutical Co., Ltd., priority 1980, dated 1983).
